According to patent US20180228828A1, “FIXED-DOSE COMBINATIONS OF ANTIVIRAL COMPOUNDS” (priority 2015, published 2018):

Experiments:
[1] = human bioavailability comparison study, Tablet Formulation 10 vs co-administered single entity products; assay type: in vivo; conditions: for Cmax / AUC(0-inf) / AUC(0-t) / concentration at 24 h: human plasma, fasted; for concentration at 24 h: read-out: C24 GM
Description: (§1) The blend is lubricated with magnesium stearate prior to roller compaction. Following roller compaction, the granules are further lubricated with magnesium stearate before compression on a rotary press. Tablet properties of apparent density and solid fraction are determined by gravimetric measurement of the drug product and geometric estimation of size with corresponding component powder measure of true density using helium pycnometry. The core tablets are then film coated and waxed to complete manufacture.
(§2) The reference in the study was co-administration of single entity products to achieve the equivalent total dose. In this cross-over design study all subjects were in the fasted state. Tablet Formulations 9b, and 10b were administered as Treatment C in the respective studies. Tablet Formulations 9a, and 10a were administered as Treatment B in the respective studies. The co-administration of the reference products were identified as Treatment A. After administration, blood samples were taken periodically, and the plasma concentration of the analytes, both primary compounds and metabolites, determined to generate the pharmacokinetic profiles and related specific metrics. These metrics included Cmax, AUC, and C24 (where quantifiable). Summary results from the human PK trials for Tablet Formulation 9 and Tablet Formulation 10 products are provided in Table 10 to Table 13 and Table 14 to 17, respectively. The resulting metrics were then compared in relation to the reference single entity products to assess similarity.

[2] = human bioavailability comparison study, Tablet Formulation 9 vs co-administered single entity products; assay type: in vivo; conditions: for Cmax / AUC(0-inf) / AUC(0-t) / concentration at 24 h: human plasma, fasted; for concentration at 24 h: read-out: C24 GM
Description: as §1, §2

[3] = human, plasma, oral, Treatment A: co-administered single entity products, equivalent total dose
[4] = human, plasma, oral, Treatment A: co-administered single entity products, equivalent total dose, read-out: AUC0-24 GM
[5] = human, plasma, oral, Treatment A: co-administered single entity products, equivalent total dose, read-out: AUC0-last GM
[6] = human, plasma, oral, Treatment B: one unit Tablet Formulation 10a
[7] = human, plasma, oral, Treatment C: one unit Tablet Formulation 10b
[8] = human, plasma, oral, Treatment B: two units Tablet Formulation 9a
[9] = human, plasma, oral, Treatment C: two units Tablet Formulation 9b
[10] = Treatment B (Tablet Formulation 10a) / Treatment A (single entities)
[11] = Treatment C (Tablet Formulation 10b) / Treatment A (single entities)
[12] = human, in vivo, Treatment A: co-administered single entity products, equivalent total dose
[13] = human, in vivo, Treatment A: co-administered single entity products, equivalent total dose, read-out: AUC0-24 GM
[14] = human, in vivo, Treatment A: co-administered single entity products, equivalent total dose, read-out: AUC0-last GM
[15] = human, in vivo, Treatment B: one unit Tablet Formulation 10a
[16] = human, in vivo, Treatment C: one unit Tablet Formulation 10b
[17] = Treatment B (Tablet Formulation 9a) / Treatment A (single entities)
[18] = Treatment C (Tablet Formulation 9b) / Treatment A (single entities)
[19] = human, in vivo, Treatment B: two units Tablet Formulation 9a
[20] = human, in vivo, Treatment C: two units Tablet Formulation 9b

COC(=O)N[C@H](C(=O)N1CCC[C@H]1c1nc(-c2ccc3c(c2)O[C@@H](c2ccccc2)n2c-3cc3cc(-c4c[nH]c([C@@H]5CCCN5C(=O)[C@@H](NC(=O)OC)C(C)C)n4)ccc32)c[nH]1)C(C)C [Compound II, dimethyl N,N′-([(6S)-6-phenylindolo[1,2-c][1,3]benzoxazine-3,10-diyl]bis{1H-imidazole-5,2-diyl-(2S)-pyrrolidine-2,1-diyl[(2S)-3-methyl-1-oxobutane-1,2-diyl]})dicarbamate]
Cmax ([1]; Treatment C: one unit Tablet Formulation 10b): 102 nM
AUC(0-inf) [1, 3]: 1.84 µM·h
Cmax [1, 3]: 101 nM
AUC(0-t) [1, 4]: 1.12 µM·h
AUC(0-t) [1, 5]: 1.81 µM·h
concentration at 24 h [1, 3]: 28.5 nM
AUC(0-t) ([1]; human, plasma, oral, Treatment B: one unit Tablet Formulation 10a (300 mg Compound I, 100 mg Compound II, 50 mg Compound III), read-out: AUC0-last GM): 1.55 µM·h
AUC(0-inf) [1, 6]: 1.58 µM·h
Cmax [1, 6]: 81.8 nM
AUC(0-t) ([1]; human, plasma, oral, Treatment B: one unit Tablet Formulation 10a, read-out: AUC0-24 GM): 0.95 µM·h
concentration at 24 h [1, 6]: 25.1 nM
AUC(0-t) ([1]; human, plasma, oral, Treatment C: one unit Tablet Formulation 10b (300 mg Compound I, 100 mg Compound II, 50 mg Compound III), read-out: AUC0-last GM): 1.83 µM·h
AUC(0-inf) [1, 7]: 1.85 µM·h
AUC(0-t) ([1]; human, plasma, oral, Treatment C: one unit Tablet Formulation 10b, read-out: AUC0-24 GM): 1.14 µM·h
concentration at 24 h [1, 7]: 29.2 nM
Cmax ([2]; Treatment C: two units Tablet Formulation 9b): 115 nM
AUC(0-inf) [2, 3]: 2.04 µM·h
Cmax [2, 3]: 113 nM
AUC(0-t) [2, 4]: 1.21 µM·h
AUC(0-t) [2, 5]: 2.01 µM·h
concentration at 24 h [2, 3]: 32.3 nM
AUC(0-t) ([2]; human, plasma, oral, Treatment B: two units Tablet Formulation 9a (450 mg Compound I, 100 mg Compound II, 50 mg Compound III), read-out: AUC0-last GM): 1.59 µM·h
AUC(0-inf) [2, 8]: 1.61 µM·h
AUC(0-t) ([2]; human, plasma, oral, Treatment B: two units Tablet Formulation 9a, read-out: AUC0-24 GM): 0.938 µM·h
concentration at 24 h [2, 8]: 25.2 nM
AUC(0-t) ([2]; human, plasma, oral, Treatment C: two units Tablet Formulation 9b (450 mg Compound I, 100 mg Compound II, 50 mg Compound III), read-out: AUC0-last GM): 2.35 µM·h
AUC(0-inf) [2, 9]: 2.38 µM·h
AUC(0-t) ([2]; human, plasma, oral, Treatment C: two units Tablet Formulation 9b, read-out: AUC0-24 GM): 1.41 µM·h
concentration at 24 h [2, 9]: 37.4 nM

CC(C)OC(=O)[C@@H](C)NP(=O)(OC[C@H]1O[C@@H](n2ccc(=O)[nH]c2=O)[C@](C)(Cl)[C@@H]1O)Oc1ccccc1 (stereo partly drawn) [Compound I, (2R)-isopropyl 2-(((((2R,3R,4R,5R)-4-chloro-5-(2,4-dioxo-3,4-dihydropyrimidin-1(2H)-yl)-3-hydroxy-4-methyltetrahydrofuran-2-yl)methoxy)(phenoxy)phosphoryl)amino)propanoate]
AUC0-24 B/A GM ratio [1, 10]: 0.96
AUC0-last B/A GM ratio [1, 10]: 0.95
AUC0-∞ B/A GM ratio [1, 10]: 0.98
Cmax B/A GM ratio [1, 10]: 0.98
AUC0-24 C/A GM ratio [1, 11]: 1.01
AUC0-last C/A GM ratio [1, 11]: 1.00
AUC0-∞ C/A GM ratio [1, 11]: 1.01
Cmax C/A GM ratio [1, 11]: 1.18
AUC(0-inf) [1, 12]: 1.69 µM·h
Cmax [1, 12]: 525 nM
AUC(0-t) [1, 13]: 1.65 µM·h
AUC(0-t) [1, 14]: 1.63 µM·h
AUC(0-t) ([1]; human, in vivo, Treatment B: one unit Tablet Formulation 10a (300 mg Compound I, 100 mg Compound II, 50 mg Compound III), read-out: AUC0-last GM): 1.55 µM·h
AUC(0-inf) [1, 15]: 1.65 µM·h
Cmax [1, 15]: 517 nM
AUC(0-t) ([1]; human, in vivo, Treatment B: one unit Tablet Formulation 10a, read-out: AUC0-24 GM): 1.58 µM·h
AUC(0-t) ([1]; human, in vivo, Treatment C: one unit Tablet Formulation 10b (300 mg Compound I, 100 mg Compound II, 50 mg Compound III), read-out: AUC0-last GM): 1.63 µM·h
AUC(0-inf) [1, 16]: 1.7 µM·h
Cmax [1, 16]: 618 nM
AUC(0-t) ([1]; human, in vivo, Treatment C: one unit Tablet Formulation 10b, read-out: AUC0-24 GM): 1.67 µM·h
AUC0-24 B/A GM ratio [2, 17]: 1.23
AUC0-last B/A GM ratio [2, 17]: 1.24
AUC0-∞ B/A GM ratio [2, 17]: 1.23
Cmax B/A GM ratio [2, 17]: 1.44
AUC0-24 C/A GM ratio [2, 18]: 1.37
AUC0-last C/A GM ratio [2, 18]: 1.38
AUC0-∞ C/A GM ratio [2, 18]: 1.36
Cmax C/A GM ratio [2, 18]: 1.69
AUC(0-inf) [2, 12]: 2.6 µM·h
Cmax [2, 12]: 738 nM
AUC(0-t) [2, 13]: 2.56 µM·h
AUC(0-t) [2, 14]: 2.52 µM·h
AUC(0-t) ([2]; human, in vivo, Treatment B: two units Tablet Formulation 9a (450 mg Compound I, 100 mg Compound II, 50 mg Compound III), read-out: AUC0-last GM): 3.11 µM·h
AUC(0-inf) [2, 19]: 3.2 µM·h
Cmax [2, 19]: 1060 nM
AUC(0-t) ([2]; human, in vivo, Treatment B: two units Tablet Formulation 9a, read-out: AUC0-24 GM): 3.15 µM·h
AUC(0-t) ([2]; human, in vivo, Treatment C: two units Tablet Formulation 9b (450 mg Compound I, 100 mg Compound II, 50 mg Compound III), read-out: AUC0-last GM): 3.48 µM·h
AUC(0-inf) [2, 20]: 3.54 µM·h
Cmax [2, 20]: 1250 nM
AUC(0-t) ([2]; human, in vivo, Treatment C: two units Tablet Formulation 9b, read-out: AUC0-24 GM): 3.52 µM·h
